US9777008B2, “PRMT5 inhibitors and uses thereof” (Epizyme, Inc., priority 2012, dated 2017)

What was measured:
[1] = test system: symmetric di-methyl arginine in Z-138 cells; test: Z-138 Methylation Assay (In Cell Western for symmetric di-methyl arginine and DNA content); assay type: cell-based; settings: read-out: ICW EC50
From the text: [formula] [formula] Where top and bottom are the normally allowed to float, but may be fixed at 100 or 0 respectively in a 3-parameter fit. The Hill Coefficient normally allowed to float but may also be fixed at 1 in a 3-parameter fit. Y is the % inhibition and X is the compound concentration. Z-138 Methylation Assay
Z-138 suspension cells were purchased from ATCC (American Type Culture Collection, Manassas, Va.). RPMI/Glutamax medium, penicillin-streptomycin, heat inactivated fetal bovine serum, and D-PBS were purchased from Life Technologies, Grand Island, N.Y., USA. Odyssey blocking buffer, 800CW goat anti-rabbit IgG (H+L) antibody, and Licor Odyssey infrared scanner were purchased from Licor Biosciences, Lincoln, Nebr., USA. Symmetric di-methyl arginine antibody was purchased from EMD Millipore, Billerica, Mass., USA. 16% Paraformaldehyde was purchased from Electron Microscopy Sciences, Hatfield, Pa., USA. Z-138 suspension cells were maintained in growth medium (RPMI 1640 supplemented with 10% v/v heat inactivated fetal bovine serum and 100 units/mL penicillin-streptomycin) and cultured at 37° C. under 5% CO2.
Cell Treatment, in Cell Western (ICW) for Detection of Symmetric Di-Methyl Arginine and DNA Content.
Z-138 cells were seeded in assay medium at a concentration of 50,000 cells per mL to a 384-well cell culture plate with 50 μL per well. Compound (100 nL) from 384 well source plates was added directly to 384 well cell plate. Plates were incubated at 37° C., 5% CO2 for 96 hours. […]
First, the ratio for each well was determined by:
Each plate included fourteen control wells of DMSO only treatment (minimum inhibition) as well as fourteen control wells for maximum inhibition treated with 3 μM of a reference compound (Background wells). The average of the ratio values for each control type was calculated and used to determine the percent inhibition for each test well in the plate. […] Percent inhibition was determined and IC50 curves were generated using triplicate wells per concentration of compound. […]

Z-138 cell line = test: Z-138 Proliferation Assay (Cell-Titer Glo, 5 days); assay type: cell-based; settings: Z-138 cells
From the text: [formula] Z-138 Proliferation Assay
Z-138 suspension cells were purchased from ATCC (American Type Culture Collection, Manassas, Va.). RPMI/Glutamax medium, penicillin-streptomycin, heat inactivated fetal bovine serum were purchased from Life Technologies, Grand Island, N.Y., USA. V-bottom polypropylene 384-well plates were purchased from Greiner Bio-One, Monroe, N.C., USA. Cell culture 384-well white opaque plates were purchased from Perkin Elmer, Waltham, Mass., USA. Cell-Titer Glo® was purchased from Promega Corporation, Madison, Wis., USA. SpectraMax M5 plate reader was purchased from Molecular Devices LLC, Sunnyvale, Calif., USA. […] Cell viability was measured by quantitation of ATP present in the cell cultures, adding […] of Cell Titer Glo® reagent to the cell plates. Luminescence was read in the SpectraMax M5 microplate reader. The concentration of compound inhibiting cell viability by 50% was determined using a 4-parametric fit of the normalized dose response curves.

| Compound | EC50 [1] [µM] | EC50 (Z-138 cell line) [µM] |
| --- | --- | --- |
| N-(3-(3-(3,4-dihydroisoquinolin-2(1H)-yl)-2-hydroxypropoxy)phenyl)pyrimidine-5-carboxamide [Compound 145] | 1 to 10 | > 20 |
| OC(COc1cccc(-c2ccc3cn[nH]c3c2)c1)CN1CCc2ccccc2C1 (stereo not shown) [Compound 58, 1-(3-(1H-indazol-6-yl)phenoxy)-3-(3,4-dihydroisoquinolin-2(1H)-yl)propan-2-ol] | 1 to 10 | 10 to 40 |
